Laboratory results taken from US11793746B2, “Intense skin hydration systems and methods” (priority 2020, dated 2023).

Columns and labels:
hepatocytes = test: Cellular O2 consumption measured with an oxygraph; type: cell-based; details: 3% GC-100
Description: Increased cellular respiration may be equated with more efficient use of cellular reserves (e.g., polysaccharides & triglycerides) and improved elimination of metabolic waste. The end result of enhanced cellular respiration is cellular regeneration and restoration of the organ system being evaluated. The activation of cellular respiration can be evaluated using an oxygraph. Since the oxygraph electrode response is directly proportional to the concentration of dissolved O2 in the test media, a measure of cellular O2 consumption can be calculated to yield information on changes in cellular respiration. […] FIG. 4 is a graph showing hepatocyte oxygen consumption in the presence of GC-100 at various concentrations.

tyrosinase = molecular target: T1, tyrosinase (Mus musculus, UniProt P11344); test: Tyrosinase activity in B16 melanoma cells; type: cell-based
T1 construct: endogenous in cells; host or cells: B16 melanoma cells
T1 sequence (P11344 19-533): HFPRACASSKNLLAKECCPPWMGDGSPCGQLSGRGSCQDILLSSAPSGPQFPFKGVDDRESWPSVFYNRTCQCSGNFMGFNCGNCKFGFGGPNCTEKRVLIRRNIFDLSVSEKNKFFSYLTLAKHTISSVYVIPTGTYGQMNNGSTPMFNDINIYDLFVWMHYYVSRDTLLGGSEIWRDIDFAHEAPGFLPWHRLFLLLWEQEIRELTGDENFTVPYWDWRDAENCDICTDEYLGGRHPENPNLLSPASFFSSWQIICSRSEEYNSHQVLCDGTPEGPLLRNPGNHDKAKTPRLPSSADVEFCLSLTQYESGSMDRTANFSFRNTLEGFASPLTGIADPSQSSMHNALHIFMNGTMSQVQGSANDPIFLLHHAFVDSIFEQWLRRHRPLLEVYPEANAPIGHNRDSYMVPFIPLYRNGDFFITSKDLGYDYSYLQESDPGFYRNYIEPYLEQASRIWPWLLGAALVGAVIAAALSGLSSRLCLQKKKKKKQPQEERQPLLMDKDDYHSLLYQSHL
Description: This Example establishes and quantifies the effect of GC-100 on tyrosinase synthesis in B16 melanoma cells.
It has been reported that tyrosinase in synthesized in B16 melanoma cells within 24 hours of plating. On the basis of these reports, B16 melanoma cells were used to evaluate the inhibitory effects of GC-100 on tyrosinase synthesis. As an indication of tyrosinase synthesis, tyrosinase activity in B16 melanoma cells was measured in addition to the amount of melanin synthesized per cell.
B16 melanoma cells (5.0′×10^4) were incubated in a 96-well microplate supplemented with DMEM and 5% fetal calf serum at 37° C. for 24 hours. Incubation was continued for an additional 24 hours at 37° C. in DMEM supplemented with GC-100 at either 250 μg/mL, 500 μg/mL, or 1000 μg/mL. After washing cells with PBS twice, the cells were lysed with 50 μL of phosphate buffer (0.05 mM, pH 6.8) containing 0.1% Triton-X, and incubated at 37° C. for 30 minutes. Then 100 μL of phosphate buffer (0.1 mM, pH 6.8) containing 0.1% DOPA was added to the lysate and incubated at 37° C. for 3 hours. The resultant melanin content and protein content of the lysate were then quantified.
GC-100 selected for examination was quantitatively evaluated regarding its inhibitory activity of melanogenesis in B16 melanoma cells. B16 melanoma cells were seeded into a 60 mm diameter dish at density of 1.5′×10^5 cells/dish and incubated at 37° C. in DMEM supplemented with 10% FCS and 40 mM sodium lactate. After 4 days, the medium was exchanged to DMEM supplemented with 5% FCS and the aforementioned concentrations of GC-100 and cultured at 37° C. The results are shown in Table 5 and FIG. 11, which is a graph showing tyrosinase activity as a function of GC-100 concentration.

[1] = test system: collagen I and III synthesis; test: [3H]-Proline incorporation as measure of collagen deposition; type: cell-based, human; details: in vitro
Description: (§1) This human skin substrate consists of neonatal foreskin fibroblasts that secrete a functionally active extracellular matrix grown on a medical-grade nylon mesh cocultured with human neonatal foreskin keratinocytes that differentiate into a multilayered epidermis.
Quantifying proline incorporation can be used to measure potential collagen deposition stimulated by a test substance. This concept is the foundation for the following experiments.

[2] = test system: human diploid fibroblasts; test: Fibroblast proliferation (MTT) in suboptimal nutritional medium; type: cell-based; details: for Cells/well (×10^3): control 15
Description: This Example quantifies the biostimulating activity of GC-100 on human diploid fibroblasts in a suboptimal nutritional environment.
Cellular proliferation, or mitotic activity, will be assessed using an MTT assay. MTT added to the microtiter wells is metabolized by succinate dehydrogenase of the citric acid cycle. Since the metabolism of MTT is dependent on mitochondrial activity, the amount of metabolite produced can be correlated with the number of viable cells present per well. The metabolite concentration is measured via spectrophotometry, with the absorption value converted to an absolute number that describes cellular growth based on standardized curves. The results are shown in Table 2 and FIG. 5, which is a graph showing fibroblast proliferation in a suboptimal nutritional environment.

[3] = test system: human skin analog, Skin^2; test: MTT cytotoxicity assay; type: cell-based; details: cytotoxic = levels below 80% of untreated control
Description: as §1, with “Preclinical studies used a three-dimensional metabolically and mitotically active in vitro human skin analog, Skin^2™. This” for “This”
This Example tested cellular viability and measured cell respiration in vitro in response to the application of GC-100 preparations.
The toxicity of a substance can be quantified by sustained metabolic activity of the cell in the presence of test substance. The integrity of cellular metabolism can be evaluated using the MTT Coloration Assay, which relies on the metabolism of 3-[4,5-dimethylthiazol-2-yl]-2,5-diphenyl tetrazolium bromide by succinate dehydrogenase of the citric acid cycle. Since the metabolism of MTT is dependent on mitochondrial activity, the amount of metabolite produced can be correlated with the number of viable cells present per well. The metabolite concentration is measured via spectrophotometry, with the absorption value converted to an absolute number that describes cellular growth.

Substance: H-Lys-Pro-NH2 [GC-100]
- average increase in O2 consumption (hepatocytes): 282%±30
- % increase O2 consumption (hepatocytes; 57 mg cells): 310%
- Final consumption, ha (hepatocytes; 57 mg cells): 1.259 nm O2/min/mg cells
- % increase O2 consumption (hepatocytes; 58 mg cells): 260%
- Final consumption, ha (hepatocytes; 58 mg cells): 1.003 nm O2/min/mg cells
- % increase O2 consumption (hepatocytes; 60 mg cells): 240%
- Final consumption, ha (hepatocytes; 60 mg cells): 0.865 nm O2/min/mg cells
- % increase O2 consumption (hepatocytes; 63 mg cells): 280%
- Final consumption, ha (hepatocytes; 63 mg cells): 0.879 nm O2/min/mg cells
- % increase O2 consumption (hepatocytes; 64 mg cells): 320%
- Final consumption, ha (hepatocytes; 64 mg cells): 0.954 nm O2/min/mg cells
- Tyrosinase activity (% of untreated control) (tyrosinase; GC-100 250 μg/mL): 57.3 ± 12%
- Tyrosinase activity (% of untreated control) (tyrosinase; GC-100 500 μg/mL): 34.1 ± 14%
- Tyrosinase activity (% of untreated control) (tyrosinase; GC-100 1000 μg/mL): 6.6 ± 14.8%
- proline incorporation relative to Retin-A (retinoic acid) 0.025% [1]: more than twice
- Cells/well (×10^3) ([2]; 0.1% GC-100): 17 ×10^3 cells/well
- Cells/well (×10^3) ([2]; 0.5% GC-100): 20 ×10^3 cells/well
- Cells/well (×10^3) ([2]; 1.0% GC-100): 21 ×10^3 cells/well
- Cells/well (×10^3) ([2]; 5% GC-100): 28 ×10^3 cells/well
- Cells/well (×10^3) ([2]; 10% GC-100): 24 ×10^3 cells/well
- Cumulative fibroblast proliferation (mitosis) ([2]; in the presence of GC-100): 83%
- cytotoxic response (MTT) [3]: does not elicit a cytotoxic response
